Assay type in all cases: in vivo
Experiment [1] concerns Meloidogyne incognita egg/larvae suspension. Put plainly: Meloidogyne test. The conditions noted are these: 20 ppm active compound, lettuce in sand, nematicidal action by gall formation. The protocol:
To produce a suitable preparation of active compound, 1 part by weight of active compound is mixed with the stated amounts of solvent and emulsifier, and the concentrate is diluted with water to the desired concentration.
Containers are filled with sand, solution of active compound, Meloidogyne incognita egg/larvae suspension and lettuce seeds. The lettuce seeds germinate and the plants develop. On the roots, galls are formed.
After the desired period of time, the nematicidal action is determined in % by gall formation. 100% means that no galls were found; 0% means that the number of galls on the treated plants corresponds to that of the untreated control.

In experiment [2] the test system is caterpillars of the diamondback moth (Plutella xylostella). In words: Plutella test. As to conditions: 100 ppm active compound, cabbage leaves dipped, kill after 7 d. The protocol: (§1) To produce a suitable preparation of active compound, 1 part by weight of active compound is mixed with the stated amounts of solvent and emulsifier, and the concentrate is diluted with emulsifier-containing water to the desired concentration.
Cabbage leaves (Brassica oleracea) are treated by being dipped into the preparation of active compound of the desired concentration and are populated with caterpillars of the diamondback moth (Plutella xylostella) while the leaves are still moist.
(§2) After the desired period of time, the kill in % is determined. 100% means that all caterpillars have been killed; 0% means that none of the caterpillars have been killed.

The test system of experiment [3] is caterpillars of the armyworm (Spodoptera exigua). In words: Spodoptera exigua test. As to conditions: 100 ppm active compound, cabbage leaves dipped, kill after 7 d. As for the experimental part: as §1
Cabbage leaves (Brassica oleracea) are treated by being dipped into the preparation of active compound of the desired concentration and are populated with caterpillars of the armyworm (Spodoptera exigua) while the leaves are still moist.
as §2

For the compound `Fc1cccc(F)c1C1=NC(c2ccc(-c3nc4cc(Br)ccc4o3)cc2)CC1` (stereo not drawn) [drawing 38], the “Efficacy in % after 7 d” value in experiment [1] is given as 80%.

In the case of `Fc1cc(-c2nc3cc(-c4ccccc4)ccc3o2)ccc1C1CCC(c2c(F)cccc2F)=N1` (stereo not drawn) [drawing 46], in experiment [2], the “Efficacy in % after 7 d” value came to 100%.

With `Fc1cc(-c2nc3cc(-c4ccccc4)ccc3o2)ccc1C1CCC(c2c(F)cccc2F)=N1` (stereo not drawn) [drawing 47], the “Efficacy in % after 7 d” value in experiment [3] amounted to 100%.

The record behind these values is patent US20050124497A1, “Delta1-pyrrolines and their use as pest control agents” (priority 2002, published 2005).
